# Assay results taken from patent US7744921B2, “Liposome loading with metal ions” (Celator Pharmaceuticals, Inc., priority 2001, dated 2010).
# Assays:
# Assay type in all cases: physicochemical
# [1] = Active (metal-based, citrate or ionophore) loading of drug into liposomes; spin column, drug-to-lipid ratio
# [2] = as above; remark: listed apart in the source
# Protocol: Lipids were dissolved in chloroform solution and subsequently dried under a stream of nitrogen gas and placed in a vacuum pump to remove solvent. Unless otherwise specified, trace levels of radioactive lipid 3H-CHE were added to quantify lipid during the formulation process. The resulting lipid film was placed under high vacuum for a minimum of 2 hours. The lipid film was hydrated in the solution indicated to form multilamellar vesicles (MLVs). The resulting preparation was extruded 10 times through stacked polycarbonate filters with an extrusion apparatus (Lipex Biomembranes, Vancouver, BC) to achieve a mean liposome size between 80 and 150 nm. All constituent lipids of liposomes are reported in mole %.
# At various time points after initiation of drug loading, aliquots were removed and passed through a Sephadex G-50 spin column to separate free from encapsulated drug. To a specified volume of eluant, Triton X-100 or N-ocyl beta-D-glucopyranoside (OGP) was added to solubilize the liposomes. Following addition of detergent, the mixture was heated to the cloud point of the detergent and allowed to cool to room temperature before measurement of the absorbance or fluorescence. Drug concentrations were calculated by comparison to a standard curve.
# In order to determine whether copper loading of irinotecan in the absence of a pH gradient could occur using a cholesterol-free formulation, DSPC/DSPG (80:20 mole ratio) liposomes containing copper(II) gluconate were prepared with an external and internal pH of 7.4. […] The lipid films were hydrated in 100 mM Cu(II) gluconate adjusted to pH 7.4 with triethanolamine (TEA) and extruded at 70° C. […] Irinotecan was added to the liposome preparation at a 0.1:1 drug-to-lipid mole ratio and incubated at 50° C. The extent of drug loading was determined as described in the methods by measuring absorbance at 370 nm and lipid levels were determined by liquid scintillation counting.
# Loading of daunorubicin into DSPC/DSPG (90:10 mole ratio) liposomes containing encapsulated CuSO4 buffered to pH 7.4 was also investigated. […] A solution of 150 mM CuSO4, 20 mM histidine (adjusted to pH 7.4 using TEA), was employed as the hydration medium and MLVs were extruded at 70° C. […] Daunorubicin was loaded at a 0.1:1 drug/lipid weight ratio. A drug-to-lipid ratio at various time points during loading was determined by measuring absorbance at 480 nm after solubilization in detergent to quantify daunorubicin as described; lipid levels were determined by liquid scintillation counting.
# The liposomes were prepared as described in the methods by hydrating lipid films in a solution of 100 mM copper(II) gluconate adjusted to pH 7.4 with TEA. Liposomes were extruded at 65° C. and the external buffer of the liposomes was exchanged to SHE, pH 7.4 by tangential flow dialysis. Liposomes were incubated with irinotecan at a 0.1:1 drug-to-lipid weight ratio at 50° C. and the extent of drug loading was determined as described by measuring absorbance at 370 nm after solubilization by detergent.
# In addition to copper loading, loading of drug using MnSO4 containing liposomes in the absence of a pH gradient was also investigated. […] Lipids films were prepared as described and hydrated in 300 mM MnSO4 buffered to pH 7.4 with 20 mM imidazole (initial pH was adjusted to 7.4 with concentrated HCl) and extrusion was carried out at 70° C. The samples were run down a Sephadex G-50 column to exchange the exterior buffer with SHE, pH 7.4.
# [3] = Effect of buffer composition on precipitation of metal ion (20 mM histidine, triethanolamine to pH 7.4, visual inspection); design: key: ppt: represents that the formation of a precipitate occurred after the addition of triethanolamine within a time course of 10 minutes; no ppt: represents that the formation of a precipitate did not occur after addition of triethanolamine to achieve a pH of 7.4 and within a time course of 10 minutes; settings: pH 7.4, 10 minutes
# [4] = 150 mM metal in 20 mM histidine
# [5] = 300 mM metal in 20 mM histidine
Molecule,"precipitation after addition of triethanolamine: Chloride [3, 4]","precipitation after addition of triethanolamine: Sulfate [3, 4]","precipitation after addition of triethanolamine: Chloride [3, 5]","precipitation after addition of triethanolamine: Sulfate [3, 5]",also measured
COc1cccc2c1C(=O)c1c(O)c3c(c(O)c1C2=O)C[C@@](O)(C(=O)CO)C[C@@H]3O[C@H]1C[C@H](N)[C@@H](O)[C@H](C)O1 [epirubicin],,,,,"drug accumulation ([1]; DSPC/DSPE-PEG2000 (95:5), 300 mM CuSO4, SHE pH 7.4, weight ratio 0.2:1, 60° C., within 5 minutes): > 95%; loading (in words) ([2]; DSPC/DSPE-PEG2000 (95:5), 300 mM MnSO4, 20 mM imidazole pH 7.4 internal, SHE pH 7.4 external, no pH gradient, 60° C., weight ratio 0.2:1): efficient encapsulation of drug occurred at each time point measured"
Zinc,ppt,ppt,ppt,ppt,
[Mn+2] [Manganese],ppt,no ppt,ppt,no ppt,
CCc1c2c(nc3ccc(OC(=O)N4CCC(N5CCCCC5)CC4)cc13)-c1cc3c(c(=O)n1C2)COC(=O)[C@]3(O)CC [irinotecan],,,,,"sequential loading of two drugs into a single liposome (in words) ([1]; DSPC/Chol (55:45), 300 mM CuSO4, 60° C., irinotecan 0.2:1 then doxorubicin 0.15:1 mole ratio): efficiently loaded; encapsulation ([1]; DSPC/Chol (55:45), 300 mM CuSO4, SHE pH 7.5, drug-to-lipid mole ratio 0.2:1, 60° C., loaded first): approximately 100%; loading ([1]; DSPC/DSPE-PEG2000 (95:5), 300 mM CuSO4, SHE pH 7.4, 60° C., weight ratio 0.1:1, within 5 minutes): greater than 95%; loading (in words) ([1]; DSPC/DSPG (80:20), 150 mM CuSO4 pH 7.4, exchanged into solution not containing a chelating agent, 37, 50 and 60° C., weight ratio 0.1:1): reduced rate; loading (in words) ([1]; DSPC/DSPG (80:20), 150 mM CuSO4 pH 7.4, passed through Chelex-100 column, 37, 50 and 60° C., weight ratio 0.1:1): enhanced; loading (in words) ([1]; FUDR-containing DSPC/Chol/DSPG (70:10:20), 100 mM Cu(II) gluconate, 220 mM TEA pH 7.4, external HBS or sucrose/HEPES pH 7.4, 50° C., mole ratio 0.1:1): efficiently loads; loading (in words) ([1]; FUDR-containing DSPC/DSPG (85:15), 100 mM Cu(II) gluconate, 220 mM TEA pH 7.4, external 300 mM sucrose, 20 mM HEPES pH 7.4, 50° C., mole ratio 0.1:1): efficient loading of the drug occurred throughout the time course of the experiment; loading (in words) ([1]; carboplatin-containing DSPC/DSPG (80:20), 150 mM CuSO4 pH 7.4, SHE pH 7.4 external, 60° C., weight ratio 0.1:1): loads to a high degree; time to almost complete loading ([2]; DPPC/Chol (55:45), 100 mM Cu(II) gluconate pH 7.4 internal, SHE pH 7.4 external, no pH gradient, 50° C., weight ratio 0.1:1): about 60 minutes; loading complete ([2]; DSPC/DSPE-PEG2000 (95:5), 300 mM MnSO4, SHE pH 7.4, 60° C., weight ratio 0.1:1, 30-minute time point): 10%; time to essentially complete loading ([2]; DSPC/DSPG (80:20) liposomes, 100 mM Cu(II) gluconate pH 7.4 (TEA) internal, SHE pH 7.4 external, no pH gradient, 50° C., drug-to-lipid mole ratio 0.1:1): ≤ 5 min; loading after chelation column versus after exchange into EDTA-containing solution (in words) ([2]; DSPC/DSPG (80:20), 150 mM copper gluconate pH 7.4, 37, 50 and 60° C., weight ratio 0.1:1): comparable"
CC[C@@]1(O)C(=O)OCc2c1cc1n(c2=O)Cc2cc3c(CN(C)C)c(O)ccc3nc2-1 [topotecan],,,,,"loading complete ([1]; DSPC/Chol (55:45), 300 mM CuSO4, SHE pH 7.4, weight ratio 0.1:1, 37° C., within 30 minutes): > 95%"
Cobalt,no ppt,no ppt,no ppt,no ppt,
CC[C@]1(O)C[C@H]2CN(CCc3c([nH]c4ccccc34)[C@@](C(=O)OC)(c3cc4c(cc3OC)N(C=O)[C@H]3[C@@](O)(C(=O)OC)[C@H](OC(C)=O)[C@]5(CC)C=CCN6CC[C@]43[C@@H]65)C2)C1 [vincristine],,,,,"incubation time to near maximum encapsulation ([2]; DSPC/Chol (55:45), 300 mM MnSO4, preloaded with doxorubicin, A23187 ionophore-mediated loading, 50° C., weight ratio 0.05:1): 40 min"
Copper,no ppt,no ppt,no ppt,no ppt,"precipitation after addition of triethanolamine: Nitrate [3, 5]: no ppt"
[Cd] [Cadmium],ppt,no ppt,ppt,no ppt,
